# Data taken from the supplement of paper PMC4862054.
# What was measured:
# Details in all cases: incubation time: 72 h
# CAL-148 [1] = test: normalised viability (% of control), CellTiter-Blue; higher = more viable cells (about 100 = DMSO control)
# Procedure: (§1)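 DSRT, CellTiter-Blue viability, 72 h incubation. Signal is normalised to DMSO and benzethonium chloride controls. Value is the normalised response at dose 6.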
# CAL-51 [2] = test: as above
# Procedure: as §1
# CAL-85-1 [3] = test: as above
# Procedure: as §1
# DU-4475 [4] = test: as above
# Procedure: as §1
# HDQ-P1 [5] = test: as above
# Procedure: as §1
# MDA-MB-453 [6] = test: as above
# Procedure: as §1
# BT-474 [7] = test: normalised response (% of control), CellTox Green; higher = less cell death (100 = DMSO, 0 = benzethonium chloride kill control)
# Procedure, shortened: (§2)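 For each plate, 0.1 % DMSO was set to 100 and a positive kill control to 0. Breast cancer cell lines (20 µl suspension) were seeded into 384-well plates already holding compound at 5 concentrations in 10-fold steps over a 10,000-fold range chosen per compound, and incubated for 72 h. CellTox Green fluorescence at 485/520 nm was read before CellTiter-Glo luminescence, which followed 10 min at room temperature. Each value is the normalised signal at one concentration.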
# BT-549 [8] = test: as above
# Procedure, shortened: as §2
# CAL-120 [9] = test: as above
# Procedure, shortened: as §2
# CAL-148 [10] = test: as above
# Procedure, shortened: as §2
# CAL-51 [11] = test: as above
# Procedure, shortened: as §2
# CAL-85-1 [12] = test: as above
# Procedure, shortened: as §2
# DU-4475 [13] = test: as above
# Procedure, shortened: as §2
# HCC1143 [14] = test: as above
# Procedure, shortened: as §2
# HCC1599 [15] = test: as above
# Procedure, shortened: as §2
# HCC1937 [16] = test: as above
# Procedure, shortened: as §2
# HDQ-P1 [17] = test: as above
# Procedure, shortened: as §2
# Hs578T [18] = test: as above
# Procedure, shortened: as §2
# MCF-10A [19] = test: as above
# Procedure, shortened: as §2
# MDA-MB-231 [20] = test: as above
# Procedure, shortened: as §2
# MDA-MB-436 [21] = test: as above
# Procedure, shortened: as §2
# MDA-MB-453 [22] = test: as above
# Procedure, shortened: as §2
# MDA-MB-468 [23] = test: as above
# Procedure, shortened: as §2
# MFM-223 [24] = test: as above
# Procedure, shortened: as §2
# BT-474 [25] = test: normalised response (% of control), CellTiter-Glo; higher = more viable cells (100 = DMSO, 0 = benzethonium chloride kill control)
# Procedure: (§3)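 DSRT, 72 h incubation, CellTox Green / CellTiter-Glo readout. Signal is normalised to DMSO and benzethonium chloride controls. Value is the normalised response at the highest dose.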
# BT-549 [26] = test: as above
# Procedure: as §3
# CAL-120 [27] = test: as above
# Procedure: as §3
# CAL-148 [28] = test: as above
# Procedure: as §3
# CAL-51 [29] = test: as above
# Procedure: as §3
# CAL-85-1 [30] = test: as above
# Procedure: as §3
# DU-4475 [31] = test: as above
# Procedure: as §3
# HCC1143 [32] = test: as above
# Procedure: as §3
# HCC1599 [33] = test: as above
# Procedure: as §3
# HCC1937 [34] = test: as above
# Procedure: as §3
# HDQ-P1 [35] = test: as above
# Procedure: as §3
# Hs578T [36] = test: as above
# Procedure: as §3
# MCF-10A [37] = test: as above
# Procedure: as §3
# MDA-MB-231 [38] = test: as above
# Procedure: as §3
# MDA-MB-436 [39] = test: as above
# Procedure: as §3
# MDA-MB-453 [40] = test: as above
# Procedure: as §3
# MDA-MB-468 [41] = test: as above
# Procedure: as §3
# MFM-223 [42] = test: as above
# Procedure: as §3
# SK-BR-3 = test: as above
# Procedure: as §3
smiles,measurement,setting,value
CC(=O)c1c(C)c2cnc(Nc3ccc(N4CCNCC4)cn3)nc2n(C2CCCC2)c1=O (300 nM),normalised viability,CAL-148 [1],102%
same,normalised viability,CAL-51 [2],81.1%
same,normalised viability,CAL-85-1 [3],89.8%
same,normalised viability,DU-4475 [4],102%
same,normalised viability,HDQ-P1 [5],52.7%
same,normalised viability,MDA-MB-453 [6],74.3%
Cn1cc(C2=Nc3cc(NC(=O)C(N)C4CCCCC4)cc4c3C2=CNNC4=O)cn1 (stereo unspecified) (300 nM),normalised viability,CAL-148 [1],84%
same,normalised viability,CAL-51 [2],93.9%
same,normalised viability,CAL-85-1 [3],66.1%
same,normalised viability,DU-4475 [4],84.3%
same,normalised viability,HDQ-P1 [5],58.7%
same,normalised viability,MDA-MB-453 [6],34.9%
COc1cc2c(cc1O)CC[C@@H]1[C@@H]2CC[C@]2(C)[C@@H](O)CC[C@@H]12 [2-methoxyestradiol] (300 nM),normalised viability,CAL-148 [1],97%
same,normalised viability,CAL-51 [2],110%
same,normalised viability,CAL-85-1 [3],99%
same,normalised viability,DU-4475 [4],90.8%
same,normalised viability,HDQ-P1 [5],72.2%
same,normalised viability,MDA-MB-453 [6],81.3%
Cc1sc2c(c1C)C(c1ccc(Cl)cc1)=N[C@@H](CC(=O)OC(C)(C)C)c1nnc(C)n1-2 [(+)JQ1] (300 nM),normalised viability,CAL-148 [1],73.8%
same,normalised viability,CAL-51 [2],98.1%
same,normalised viability,CAL-85-1 [3],64.2%
same,normalised viability,DU-4475 [4],57.6%
same,normalised viability,HDQ-P1 [5],62.9%
same,normalised viability,MDA-MB-453 [6],34.8%
CC1(C)CCC(CN2CCN(c3ccc(C(=O)NS(=O)(=O)c4ccc(NCC5CCOCC5)c([N+](=O)[O-])c4)c(Oc4cnc5[nH]ccc5c4)c3)CC2)=C(c2ccc(Cl)cc2)C1 [ABT-199] (10000 nM),normalised response,BT-474 [7],101%
same,normalised response,BT-549 [8],84.9%
same,normalised response,CAL-120 [9],88.4%
same,normalised response,CAL-148 [10],98.2%
same,normalised response,CAL-51 [11],101%
same,normalised response,CAL-85-1 [12],114%
same,normalised response,DU-4475 [13],97.9%
same,normalised response,HCC1143 [14],103%
same,normalised response,HCC1599 [15],105%
same,normalised response,HCC1937 [16],-11.4%
same,normalised response,HDQ-P1 [17],98.2%
same,normalised response,Hs578T [18],102%
same,normalised response,MCF-10A [19],108%
same,normalised response,MDA-MB-231 [20],-19%
same,normalised response,MDA-MB-436 [21],95.9%
same,normalised response,MDA-MB-453 [22],97.7%
same,normalised response,MDA-MB-468 [23],118%
same,normalised response,MFM-223 [24],86.4%
same,normalised response,BT-474 [25],70.2%
same,normalised response,BT-549 [26],91.4%
same,normalised response,CAL-120 [27],98.5%
same,normalised response,CAL-148 [28],105%
same,normalised response,CAL-51 [29],119%
same,normalised response,CAL-85-1 [30],97.8%
same,normalised response,DU-4475 [31],86.2%
same,normalised response,HCC1143 [32],93.7%
same,normalised response,HCC1599 [33],66.4%
same,normalised response,HCC1937 [34],73.2%
same,normalised response,HDQ-P1 [35],90.8%
same,normalised response,Hs578T [36],90.5%
same,normalised response,MCF-10A [37],116%
same,normalised response,MDA-MB-231 [38],66.3%
same,normalised response,MDA-MB-436 [39],102%
same,normalised response,MDA-MB-453 [40],92.9%
same,normalised response,MDA-MB-468 [41],85.9%
same,normalised response,MFM-223 [42],91%
same,normalised response,SK-BR-3,90%
Oc1ncnc2[nH]ncc12 [Allopurinol] (300 nM),normalised viability,CAL-148 [1],113%
same,normalised viability,CAL-51 [2],93.3%
same,normalised viability,CAL-85-1 [3],104%
same,normalised viability,DU-4475 [4],91.6%
same,normalised viability,HDQ-P1 [5],73.6%
same,normalised viability,MDA-MB-453 [6],101%
O=C1CN2Cc3c(ccc(Cl)c3Cl)N=C2N1 [Anagrelide] (300 nM),normalised viability,CAL-148 [1],107%
same,normalised viability,CAL-51 [2],77.6%
same,normalised viability,CAL-85-1 [3],94.4%
same,normalised viability,DU-4475 [4],94.7%
same,normalised viability,HDQ-P1 [5],80.3%
same,normalised viability,MDA-MB-453 [6],111%
Nc1ncn([C@@H]2O[C@H](CO)[C@@H](O)[C@H]2O)c(=O)n1 [Azacitidine] (300 nM),normalised viability,CAL-148 [1],95.3%
same,normalised viability,CAL-51 [2],104%
same,normalised viability,CAL-85-1 [3],93.1%
same,normalised viability,DU-4475 [4],90%
same,normalised viability,HDQ-P1 [5],84.5%
same,normalised viability,MDA-MB-453 [6],91.9%
CC(=O)N(O)CCCCCNC(=O)CCC(=O)N(O)CCCCCNC(=O)CCC(=O)N(O)CCCCCN [Deferoxamine] (10000 nM),normalised response,BT-474 [7],82.7%
same,normalised response,BT-549 [8],81.3%
same,normalised response,CAL-120 [9],103%
same,normalised response,CAL-148 [10],37.6%
same,normalised response,CAL-51 [11],48%
same,normalised response,CAL-85-1 [12],128%
same,normalised response,DU-4475 [13],81.2%
same,normalised response,HCC1143 [14],79.9%
same,normalised response,HCC1599 [15],92.8%
same,normalised response,HCC1937 [16],90.9%
same,normalised response,HDQ-P1 [17],104%
same,normalised response,Hs578T [18],113%
same,normalised response,MCF-10A [19],105%
same,normalised response,MDA-MB-231 [20],98.7%
same,normalised response,MDA-MB-436 [21],98.2%
same,normalised response,MDA-MB-453 [22],102%
same,normalised response,MDA-MB-468 [23],150%
same,normalised response,MFM-223 [24],101%
same,normalised response,BT-474 [25],76%
same,normalised response,BT-549 [26],54.5%
same,normalised response,CAL-120 [27],87.2%
same,normalised response,CAL-148 [28],26.6%
same,normalised response,CAL-51 [29],37.9%
same,normalised response,CAL-85-1 [30],78.8%
same,normalised response,DU-4475 [31],18.3%
same,normalised response,HCC1143 [32],65%
same,normalised response,HCC1599 [33],45.9%
same,normalised response,HCC1937 [34],64.1%
same,normalised response,HDQ-P1 [35],64.6%
same,normalised response,Hs578T [36],62%
same,normalised response,MCF-10A [37],57.5%
same,normalised response,MDA-MB-231 [38],71.8%
same,normalised response,MDA-MB-436 [39],48.8%
same,normalised response,MDA-MB-453 [40],89.6%
same,normalised response,MDA-MB-468 [41],37.7%
same,normalised response,MFM-223 [42],70.9%
same,normalised response,SK-BR-3,40.5%
